Laboratory results reported in patent US5032614A, “Serotonin antagonist” (Mitsubishi Kasei Corporation, priority 1989, dated 1991).
One block for each molecule: values may come before it.

Experiments:
[1] = biological target: T1, serotonin receptor (3H-Ketanserin binding, cerebral cortex nucleus-microsome-containing fraction) (Rattus norvegicus, UniProt P14842); assay: Receptor-binding test (3H-Ketanserin tracer, rat cerebral cortex receptor fraction); details: 3H-Ketanserin 1 nM, Wistar rat cerebral cortex receptor, 37° C. 30 min; read-out: IC50 (50% inhibition of specific binding of the tracer to the receptor)
T1 construct: the resultant nucleus-microsome-containing fraction (=receptor) was stored at -80° C; from tissue; host or cells: Wistar rat (male) cerebral cortex, nucleus-microsome-containing fraction
Method: (1) Receptor-binding Test
(a) Preparation of Receptor
Wistar strain male rats (300-500 g) were killed by decapitation. Cerebral cortex was removed, homogenized in 50 mM Tris-HCl buffer, pH 7.4, and centrifuged at 50,000×g for 20 min at 4° C. After washing precipitates with the same buffer, the resultant nucleus-microsome-containing fraction (=receptor) was stored at -80° C. until use.
The receptor obtained above (0.5 ml, equivalent to 5 mg of tissue) was incubated at 37° C. for 30 min in 0.4 ml of the above-mentioned buffer containing 0.1 ml of ^3 H-Ketanserin tracer (77 Ci/mmol; a final concentration of 1 nM) in the final volume of 1.0 ml. The reaction mixture was filtered under vacuum through a GF/B glass filter (Whatman). After washing the filter with the buffer, radio activity bound to filter was measured by a liquid scintilation spectrophotometer (Aloka, LSC-900) to obtain the total binding activity of the tracer.
Non-specific binding activity of the tracer, i.e., the binding activity of the tracer to materials other than the receptor, was evaluated using the same assay system except for that serotonin was added to the reaction mixture to the final concentration of 1 mM in order to block the binding of the tracer to the receptor. The specific binding activity of the tracer to the receptor was determined by subtracting the non-specific binding activity from the total binding activity.
(c) IC50 (concentration of a test compound requisite for producing a 50% inhibition)
Concentration (ng/ml) of compounds of the invention (serotonin antagonist) which produces a 50% inhibition of specific binding of the tracer to the receptor was determined as follows.
The assay system and procedure as described in (b) were employed except for that amitriphtyline hydrochloride as a control or a compound of the invention was added to the assay system with various concentrations of from 10^-1 to 10^-5 ng/ml. The specific binding activity was determined at each concentration, and a dose-response curve was prepared. A concentration of the compound in ng/ml required for producing 50% inhibition of specific binding of the tracer to the receptor (IC50) was determined on the basis of the dose-response curve.

[2] = biological target: T2, serotonin-induced constriction of caudal artery (Rattus norvegicus, UniProt P14842); assay: Inhibition test against serotonin-induced constriction of caudal artery in rats; type: cell-based; details: Wistar rat caudal artery spiral strip, from shift of serotonin ED50; read-out: Ki (inhibition constant against serotonin-induced constriction)
T2 construct: Caudal artery was removed and spiral strip was prepared; from tissue; host or cells: Wistar rat (male) caudal artery, spiral strip
Method: (2) Inhibition Test against Serotonin-induced Constriction of Caudal Artery in Rats Wistar strain male rats (300-500 g) were sacrificed by striking the animals at the occiput. Caudal artery was removed and spiral strip was prepared according to the procedure of J. M. van Nueten, The Journal of Pharmacology and Experimental Therapeutics 218(1): 217-230 (1981).
The spirit strip was ligated at both ends with cotton thread and placed in a magunus tube containing 10 ml of Krebs-Henselite solution (37° C., bubbled with a mixture of 95% O2 and 5% CO2). One end of the thread was connected to Isometric Transducer (Nihon Koden-kogyo Kikai). Isometric contraction was measured using Isometric Amplifier (Nihon Koden-kogyo Kikai) under a tension of 0.5 g.
The control contruction by cumulatively added serotonin(final concentration: 10^-9 --10^-5 M) was measured and then the control ED50 value of serotonin was determined. Subsequently, the strip was washed three times with Krebs-Henselite solution and a compound of the invention was added at a suitable concentration (final concentration: 10^-8, 10^-7, 10^-6, or 10^-5 M). Two minutes later, serotonin was cumulatively added at concentrations from 10^-9 to 10^-5 or 10^-3 M, and the ED50 value in the test group was determined.
ED50 values were calculated by "Probit Analysis". In Probit Analysis, an intercept, slope and spontaneous (threshold) reaction ratio of the curve obtained by biological analysis can be calculated according to the following "Probit equation" with highest reliability: [formula] .PHI.: the cumulative distributing relationships of standard normal distribution. […]
x: average dose (concentration of serotonin) y: probability of reaction (contractility rate of vascular smooth muscle) a, b, c: parameter; a, b>0, 1>c>0.
Inhibition constant (Ki) for each compound was determined according to the following equation: [formula]

T2 sequence (P14842 whole entry): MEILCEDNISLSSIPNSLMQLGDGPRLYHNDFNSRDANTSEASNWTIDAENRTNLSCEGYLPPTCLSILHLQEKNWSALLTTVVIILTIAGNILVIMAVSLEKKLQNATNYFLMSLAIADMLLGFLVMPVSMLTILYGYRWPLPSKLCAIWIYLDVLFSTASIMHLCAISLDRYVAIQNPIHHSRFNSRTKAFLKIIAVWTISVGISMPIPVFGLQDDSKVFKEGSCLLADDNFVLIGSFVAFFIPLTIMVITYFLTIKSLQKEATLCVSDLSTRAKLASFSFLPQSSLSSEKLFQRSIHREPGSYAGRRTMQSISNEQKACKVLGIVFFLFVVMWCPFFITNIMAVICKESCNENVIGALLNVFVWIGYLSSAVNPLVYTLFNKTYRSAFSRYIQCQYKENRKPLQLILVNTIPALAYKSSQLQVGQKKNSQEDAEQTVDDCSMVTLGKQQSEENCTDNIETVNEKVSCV
T1 sequence (P14842 whole entry): as above

Compound: CN(C)CCOc1ccccc1CCc1ccccc1 [Compound No. 1]
IC50 [1]: 96.2 nM
Ki [2]: 6.33 nM

Compound: CN(C)CCCOc1ccccc1CCc1ccccc1 [Compound No. 2]
IC50 [1]: 33.8 nM
Ki [2]: 4.55 nM

Compound: CN(C)CCCCOc1ccccc1CCc1ccccc1 [compound 3]
IC50 [1]: 115 nM
Ki [2]: 9.78 nM

Compound: CN(C)CCCCCOc1ccccc1CCc1ccccc1 [compound 4]
IC50 [1]: 377 nM
Ki [2]: 37.6 nM

Compound: CN(C)CCCCCCOc1ccccc1CCc1ccccc1 [compound 5]
IC50 [1]: 152 nM
Ki [2]: 74.9 nM

Compound: CNCCCCOc1ccccc1CCc1ccccc1 [compound 6]
IC50 [1]: 156 nM
Ki [2]: 70.6 nM

Ki [2]: 280 nM
Compound: NCCCCOc1ccccc1CCc1ccccc1 [compound 7]

Compound: c1ccc(CCc2ccccc2OCCCCN2CCCCC2)cc1 [compound 8]
Ki [2]: 67.6 nM

Ki [2]: 198 nM
Compound: O=C(O)C1CCN(CCCCOc2ccccc2CCc2ccccc2)CC1 [compound 9]

Ki [2]: 517 nM
Compound: CN(C)CCCCOc1cccc(CCc2ccccc2)c1 [compound 10]

Ki [2]: 416 nM
Compound: CN(C)CCCCOc1ccc(CCc2ccccc2)cc1 [compound 11]

Compound: COc1cccc(CCc2ccccc2OCCCCN(C)C)c1 [compound 12]
Ki [2]: 13.1 nM

Compound: CN(C)CCCOc1ccccc1CCc1ccc(N(C)C)cc1 [compound 13]
Ki [2]: 23.3 nM

Compound: COc1cccc(CCc2ccccc2OCC(CN(C)C)OC(=O)CCC(=O)O)c1 (stereo not drawn) [compound 14]
Ki [2]: 17.8 nM

Compound: COc1cccc(CCc2ccccc2OCC(O)CN(C)C)c1 (stereo not drawn) [compound 15]
Ki [2]: 1.16 nM

Compound: COc1cccc(CCc2ccccc2OCC(CN(C)C)OCCC(=O)O)c1 (stereo not drawn) [compound 16]
Ki [2]: 1.05 nM

Compound: CN(C)CC(COc1ccccc1CCc1cccc(F)c1)OC(=O)CCC(=O)O (stereo not drawn) [compound 17]
Ki [2]: 41.3 nM

Compound: CN(C)CC(O)COc1ccccc1CCc1ccccc1 (stereo not drawn) [compound 18]
Ki [2]: 13.9 nM

Compound: CN(C)CCCCOc1ccccc1CCc1cccc(Cl)c1 [compound 19]
Ki [2]: 13.5 nM

Compound: CN(C)CCCCOc1ccc(Cl)cc1CCc1ccccc1 [compound 20]
Ki [2]: 25.7 nM

Compound: COc1cccc(CCc2ccccc2)c1OCCCCN(C)C [compound 21]
Ki [2]: 85.7 nM
